Source: patent publication US20250179047A1, “5-[7-(3,4-DIHYDRO-1H-ISOQUINOLINE-2-CARBONYL)-1,2,3,4 TETRAHYDROISOQUINOLIN-6-YL]-1H-PYRROLE-3-CARBOXAMIDE DERIVATIVES, PHARMACEUTICAL COMPOSITIONS CONTAINING THEM AND THEIR USES AS PRO-APOPTOTIC AGENTS” (LES LABORATOIRES SERVIER, priority 2022, published 2025)

Legend:
KMS-12-PE Bcl-2 WT = assay: In vitro cytotoxicity CellTiter-Glo 48 h, KMS-12-PE Bcl-2 WT; format: cell-based; conditions: Homo sapiens, KMS-12-PE, C50 = concentration needed to reach 50% of the cellular viability
Method in brief: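 Bcl-2 WT- and G101V-expressing KMS-12-PE cells; 48 h treatment at 37 °C, 5% CO2; CellTiter-Glo ATP luminescence; C50 from 11-point curves.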

BCL2 WT = BCL2 WT (Homo sapiens (Human), UniProt P10415); assay: TR-FRET competitive binding assay, BCL2 WT; conditions: Ki determined from IC50, read-out: TR_FRET EKI_Bcl2 WT
Method in brief: (§1)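 Terbium-labelled N-terminal Halo-fusion BCL2 or BCLXL (E. coli), 0.5 nM, competed against fluorescein-labelled PUMA peptide (2 or 20 nM) for 2 h at 23° C in 50 mM Hepes pH 7.5, 150 mM NaCl, 5% DMSO. TR-FRET 520/495 nm ratio gave IC50 by four-parameter fit; Ki derived from IC50.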

BCLXL WT = BCLXL WT (Homo sapiens (Human), UniProt Q07817); assay: TR-FRET competitive binding assay, BCLXL WT; conditions: for Ki: BCLXL WT, Ki determined from IC50, read-out: TR_FRET EKI BclxL; for TR_FRET EKI BCLxL/WT selectivty ratio: ratio Ki BCLxL / Ki BCL2 WT
BCLXL WT, sequence (Q07817 other isoform, or with tags, fused parts or gaps): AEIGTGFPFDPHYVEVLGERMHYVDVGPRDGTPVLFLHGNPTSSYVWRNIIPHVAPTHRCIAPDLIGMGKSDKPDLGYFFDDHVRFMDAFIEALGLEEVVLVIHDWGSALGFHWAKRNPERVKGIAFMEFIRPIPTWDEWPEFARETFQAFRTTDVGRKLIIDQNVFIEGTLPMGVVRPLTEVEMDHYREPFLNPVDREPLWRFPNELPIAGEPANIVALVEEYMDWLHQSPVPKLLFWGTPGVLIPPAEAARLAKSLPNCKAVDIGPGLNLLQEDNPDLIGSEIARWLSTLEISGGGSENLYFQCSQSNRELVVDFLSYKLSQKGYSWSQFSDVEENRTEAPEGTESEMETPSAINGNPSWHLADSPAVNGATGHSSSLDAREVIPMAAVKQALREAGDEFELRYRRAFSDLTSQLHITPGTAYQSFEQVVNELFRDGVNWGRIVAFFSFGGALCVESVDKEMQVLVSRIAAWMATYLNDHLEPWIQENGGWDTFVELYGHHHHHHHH
Method in brief: as §1

BCL2 G101V [1] = assay: TR-FRET competitive binding assay, BCL2 G101V; parameters: species or system human; conditions: ratio Ki BCL2 G101V / Ki BCL2 WT
Method in brief: as §1

BCL2 G101V [2] = target: BCL2 G101V (Homo sapiens, UniProt P10415, G101V); assay: TR-FRET competitive binding assay, BCL2 G101V; conditions: BCL2 G101V; Ki determined from IC50; read-out: TR_FRET EKI_Bcl2 G101V
Method in brief: as §1

BCL2 D103Y = BCL2 D103Y (Homo sapiens, UniProt P10415, D103Y); assay: TR-FRET competitive binding assay, BCL2 D103Y; conditions: Ki determined from IC50, read-out: TR_FRET EKI_Bcl2 D103Y
Method in brief: as §1

Row | SMILES | IC50 (KMS-12-PE Bcl-2 WT) [µM] | Ki (BCL2 WT) [nM] | Ki (BCLXL WT) [nM] | TR_FRET EKI BCLxL/WT selectivty ratio (BCLXL WT) | TR_FRET EKI G101V/WT selectivty ratio (BCL2 G101V [1]) | Ki (BCL2 G101V [2]) [nM] | Ki (BCL2 D103Y) [nM]
1 | Cc1c(C(=O)N(c2ccccc2)c2cnn(CCN(C)C)c2)cc(-c2cc3c(cc2C(=O)N2Cc4ccccc4C[C@H]2C)CN(C(=O)Cc2ccc(OCCC4CCOCC4)cc2)CC3)n1C [Example 207, N-[l-[2-(dimethylamino)ethyl]pyrazol-4-yl]-1,2-dimethyl-5-[7-[(3R)-3-methyl-3,4-dihydro-1H-isoquinoline-2-carbonyl]-2-[2-[4-(2-tetrahydropyran-4-ylethoxy)phenyl]acetyl]-3,4-dihydro-1H-isoquinolin-6-yl]-N-phenyl-pyrrole-3-carboxamide] | 0.023 | 0.02 | 3 | 150.0 | 68.8 | 1.4 | 0.04
2 | Cc1c(C(=O)N(c2ccccc2)c2cnn(C)c2)cc(-c2cc3c(cc2C(=O)N2Cc4ccccc4C[C@H]2C)CN(C(=O)Cc2ccc(OCCN(C)C)cc2)CC3)n1C [Example 208, 5-[2-[2-[4-[2-(dimethylamino)ethoxy]phenyl]acetyl]-7-[(3R)-3-methyl-3,4-dihydro-1H-isoquinoline-2-carbonyl]-3,4-dihydro-1H-isoquinolin-6-yl]-1,2-dimethyl-N-(1-methylpyrazol-4-yl)-N-phenyl-pyrrole-3-carboxamide] | 0.0301 | 0.04 | 8.8 | 200.0 | 83.8 | 3.7 | 0.12
3 | COc1ccc(N(C(=O)c2cc(-c3cc4c(cc3C(=O)N3Cc5ccccc5C[C@H]3C)CN(C(=O)Cc3ccc(OCCN5CCOCC5)cc3)CC4)n(C)c2C)c2ccc(F)cc2)cc1C#N [Example 209, N-(3-cyano-4-methoxy-phenyl)-N-(4-fluorophenyl)-1,2-dimethyl-5-[7-[(3R)-3-methyl-3,4-dihydro-1H-isoquinoline-2-carbonyl]-2-[2-[4-(2-morpholinoethoxy)phenyl]acetyl]-3,4-dihydro-1H-isoquinolin-6-yl]pyrrole-3-carboxamide] | 0.0486 | 0.08 | 23 | 291.1 | 47.5 | 3.8 | 0.21
4 | CCn1cc(N(C(=O)c2cc(-c3cc4c(cc3C(=O)N3Cc5ccccc5C[C@H]3C)CN(C(=O)Cc3ccc(OCCN5CCOCC5)cc3)CC4)n(C)c2C)c2ccccc2)c(C)n1 [Example 210, N-(1-ethyl-3-methyl-pyrazol-4-yl)-1,2-dimethyl-5-[7-[(3R)-3-methyl-3,4-dihydro-1H-isoquinoline-2-carbonyl]-2-[2-[4-(2-morpholinoethoxy)phenyl]acetyl]-3,4-dihydro-1H-isoquinolin-6-yl]-N-phenyl-pyrrole-3-carboxamide] | 0.0395 | 0.04 | 29 | 828.6 | 118.3 | 4.1 | 0.11
5 | Cc1c(C(=O)N(c2ccccc2)c2cnn(C(F)F)c2)cc(-c2cc3c(cc2C(=O)N2Cc4ccccc4C[C@H]2CF)CN(C(=O)Cc2ccc(OCCN4CCOCC4)cc2)CC3)n1C [Example 211, N-[1-(difluoromethyl)pyrazol-4-yl]-5-[7-[(3S)-3-(fluoromethyl)-3,4-dihydro-1H-isoquinoline-2-carbonyl]-2-[2-[4-(2-morpholinoethoxy)phenyl]acetyl]-3,4-dihydro-1H-isoquinolin-6-yl]-1,2-dimethyl-N-phenyl-pyrrole-3-carboxamide] | 0.0157 | 0.07 | 26 | 351.4 | 72.1 | 5.3 | 0.18
6 | Cc1c(C(=O)N(c2ccccc2)c2cnn(C(F)F)c2)cc(-c2cc3c(cc2C(=O)N2Cc4ccccc4C[C@H]2C)CN(C(=O)Cc2ccc(C#CCN4CCOCC4)cc2)CC3)n1C [Example 212, N-[1-(difluoromethyl)pyrazol-4-yl]-1,2-dimethyl-5-[7-[(3R)-3-methyl-3,4-dihydro-1H-isoquinoline-2-carbonyl]-2-[2-[4-(3-morpholinoprop-1-ynyl)phenyl]acetyl]-3,4-dihydro-1H-isoquinolin-6-yl]-N-phenyl-pyrrole-3-carboxamide] | 0.006 | 0.05 | 4.8 | 104.3 | 37.0 | 1.7 | 0.13
7 | Cc1c(N(C(=O)c2cc(-c3cc4c(cc3C(=O)N3Cc5ccccc5C[C@H]3C)CN(C(=O)Cc3ccc(OCCN(C)C)cc3F)CC4)n(C)c2C)c2ccccc2)cc(C#N)n1C [Example 213, N-(5-cyano-1,2-dimethyl-pyrrol-3-yl)-5-[2-[2-[4-[2-(dimethylamino)ethoxy]-2-fluoro-phenyl]acetyl]-7-[(3R)-3-methyl-3,4-dihydro-1H-isoquinoline-2-carbonyl]-3,4-dihydro-1H-isoquinolin-6-yl]-1,2-dimethyl-N-phenyl-pyrrole-3-carboxamide] | 0.0053 | 0.01 | 1 | 108.9 | 46.6 | 0.4 | 0.03
8 | Cc1c(C(=O)N(c2ccccc2)c2cc(C#N)n(C(F)F)c2C)cc(-c2cc3c(cc2C(=O)N2Cc4ccccc4C[C@H]2C)CN(C(=O)Cc2ccc(OCCN4CCOCC4)cc2)CC3)n1C [Example 214, N-[5-cyano-1-(difluoromethyl)-2-methyl-pyrrol-3-yl]-1,2-dimethyl-5-[7-[(3R)-3-methyl-3,4-dihydro-1H-isoquinoline-2-carbonyl]-2-[2-[4-(2-morpholinoethoxy)phenyl]acetyl]-3,4-dihydro-1H-isoquinolin-6-yl]-N-phenyl-pyrrole-3-carboxamide] | 0.0035 | 0.05 | 8.6 | 168.6 | 13.3 | 0.7 | 0.12
9 | Cc1c(N(C(=O)c2cc(-c3cc4c(cc3C(=O)N3Cc5ccccc5C[C@H]3C)CN(C(=O)Cc3ccc(OCCN5CCOCC5)cc3)CC4)n(C)c2C)c2ccccc2)cnn1C(F)F [Example 215, N-[1-(difluoromethyl)-5-methyl-pyrazol-4-yl]-1,2-dimethyl-5-[7-[(3R)-3-methyl-3,4-dihydro-1H-isoquinoline-2-carbonyl]-2-[2-[4-(2-morpholinoethoxy)phenyl]acetyl]-3,4-dihydro-1H-isoquinolin-6-yl]-N-phenyl-pyrrole-3-carboxamide] | 0.0147 | 0.06 | 16 | 280.7 | 80.9 | 4.6 | 0.13
10 | Cc1c(C(=O)N(c2ccccc2)c2cnn(C)c2)cc(-c2cc3c(cc2C(=O)N2Cc4ccccc4C[C@H]2C)CN(C(=O)Cc2cccc(C4CCN(C)CC4)c2)CC3)n1C [Example 216, 1,2-dimethyl-5-[7-[(3R)-3-methyl-3,4-dihydro-1H-isoquinoline-2-carbonyl]-2-[2-[3-(1-methyl-4-piperidyl)phenyl]acetyl]-3,4-dihydro-1H-isoquinolin-6-yl]-N-(1-methylpyrazol-4-yl)-N-phenyl-pyrrole-3-carboxamide] | 0.0449 | 0.05 | 2.6 | 50.1 | 125.5 | 6.4 | 0.33
11 | Cc1c(C(=O)N(c2ccccc2)c2cnn(C)c2)cc(-c2cc3c(cc2C(=O)N2Cc4ccccc4C[C@H]2C)CN(C(=O)Cc2cccc(N4CC5(CN(C)C5)C4)c2)CC3)n1C [Example 217, 1,2-dimethyl-5-[2-[2-[3-(6-methyl-2,6-diazaspiro[3.3]heptan-2-yl)phenyl]acetyl]-7-[(3R)-3-methyl-3,4-dihydro-1H-isoquinoline-2-carbonyl]-3,4-dihydro-1H-isoquinolin-6-yl]-N-(1-methylpyrazol-4-yl)-N-phenyl-pyrrole-3-carboxamide] | 0.0453 | 0.02 | 0.6 | 24.9 | 88.7 | 2 | 0.09
12 | Cc1c(C(=O)N(c2ccccc2)c2cccc(C#N)c2)cc(-c2cc3c(cc2C(=O)N2Cc4ccccc4C[C@H]2C)CN(C(=O)Cc2ccc(OCCN4CCOCC4)cc2)CC3)n1C [Example 218, N-(3-cyanophenyl)-1,2-dimethyl-5-[7-[(3R)-3-methyl-3,4-dihydro-1H-isoquinoline-2-carbonyl]-2-[2-[4-(2-morpholinoethoxy)phenyl]acetyl]-3,4-dihydro-1H-isoquinolin-6-yl]-N-phenyl-pyrrole-3-carboxamide] | 0.0142 | 0.03 | 13.8 | 418.1 | 45.3 | 1.5 | 0.08
